Measurements from patent US8314094B2, “Benzoxazinone derivative” (MSD K.K, priority 2007, dated 2012).

Target: T1, human LCE (Homo sapiens, UniProt Q9H5J4)
T1 sequence (Q9H5J4 1-265): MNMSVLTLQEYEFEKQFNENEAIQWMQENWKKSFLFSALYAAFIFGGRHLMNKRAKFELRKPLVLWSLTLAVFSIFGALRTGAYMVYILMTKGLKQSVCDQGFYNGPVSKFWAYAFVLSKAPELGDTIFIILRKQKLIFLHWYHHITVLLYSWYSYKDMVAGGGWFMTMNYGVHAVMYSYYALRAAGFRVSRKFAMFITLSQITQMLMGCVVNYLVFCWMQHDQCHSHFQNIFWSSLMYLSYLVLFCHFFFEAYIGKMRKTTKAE
Assay: LCE enzymatic activity inhibition test
Format: biochemical
Conditions: human LCE enzyme, palmitoyl-CoA and [14C]-malonyl-CoA as substrates, pH 6.5, 37° C. for 90 minutes
Experimental: An LCE enzymatic activity inhibition test was carried out by a modified method of Moon (J. Biol. Chem., Vol. 276, pp. 45358-45366, (2001)) et al. That is, the diluted test compound was added to a 96-well assay plate (Corning, 96-Well Assay Block) in an amount of 1.0 μL per well, and thereafter, 50 μL of a phosphate buffer solution (a 100 mM potassium phosphate buffer solution (pH 6.5)), 25 μL of a substrate solution (a 100 mM potassium phosphate buffer solution (pH 6.5), 4.0 μM rotenone, 80 μM fatty acid-free bovine serum albumin, 160 μM palmitoyl-CoA, 80 μM malonyl-CoA, 3.5 μM [^14C]-malonyl-CoA (1.92 GBq/mmol, manufactured by Amersham, Inc.)) was added to each well, and further, 25 μL of an enzyme solution (a 100 mM potassium phosphate buffer solution (pH 6.5), 100 μg/mL human LCE) was added thereto. Then, the upper part of the plate was hermetically closed with a seal member, and the plate was incubated at 37° C. for 90 minutes while gently shaking and stirring. Thereafter, to each well, 100 μL of 5 N HCl was added and the assay plate was stirred at room temperature for 5 minutes, whereby the enzymatic reaction was stopped and also acyl-CoA was hydrolyzed. Thereafter, the enzymatic reaction solution in each well was adsorbed to each well of a 96-well GF/C filter plate (PerkinElmer, Unifilter 96GF/C) through which water had been passed in advance, and then, each well was washed with water to remove unadsorbed malonyl-CoA and the GF/C filter plate was dried at 50° C. for 60 minutes. Thereafter, to each well, 30 μL of a scintillator (PerkinElmer, Microscinti 0) was added and the upper part of the plate was sealed, and the radioactivity of the fixed [^14C] was measured using a microplate scintillation counter (PerkinElmer, Top Count) from which the enzymatic activity was determined The human LCE enzyme inhibitory activity of the test compound was calculated using the radioactivity obtained from a well to which DMSO containing no test compound is added as a control.

IC50 [nM]	Compound
119	Cn1cc(-c2ccc3c(c2)C(CNC(=O)c2ccc(F)cc2)(C(F)(F)F)OC(=O)N3)cn1 (single isomer, unassigned) [Example 133, (4S*)-4-fluoro-N-{[6-(1-methyl-1H-pyrazol-4-yl)-2-oxo-4-(trifluoromethyl)-1,4-dihydro-2H-3,1-benzoxazin-4-yl]methyl}benzamide]
17	O=C1Nc2ccc(Cl)cc2C(CCCNC(=O)c2ccc(F)cc2)(C(F)(F)F)O1 (single isomer, unassigned) [Example 33, N-{3-[(4R*)-6-chloro-2-oxo-4-(trifluoromethyl)-1,4-dihydro-2H-3,1-benzoxazin-4-yl]propyl}-4-fluorobenzamide]
7.3	Cc1ccn(-c2ccc3c(c2)C(CNC(=O)c2ccc(F)cc2)(C(F)(F)F)OC(=O)N3)n1 (stereo not shown) [Example 178, 4-fluoro-N-{[6-(3-methyl-1H-pyrazol-1-yl)-2-oxo-4-(trifluoromethyl)-1,4-dihydro-2H-3,1-benzoxazin-4-yl]methyl}benzamide]
14	O=C1Nc2ccc(-c3ccco3)cc2C(CNC(=O)c2ccc(F)cc2)(C(F)(F)F)O1 (stereo not shown) [Example 146, 4-fluoro-N-{[6-(2-furyl)-2-oxo-4-(trifluoromethyl)-1,4-dihydro-2H-3,1-benzoxazin-4-yl]methyl}benzamide]
5.3	CN1CCN(c2ccc3c(c2)C(CNC(=O)c2ccc(F)cc2)(C(F)(F)F)OC(=O)N3)C1=O (stereo not shown) [Example 174, 4-fluoro-N-{[6-(3-methyl-2-oxazolidin-1-yl)-2-oxo-4-(trifluoromethyl)-1,4-dihydro-2H-3,1-benzoxazin-4-yl]methyl}benzamide]
6.6	O=C1Nc2ccc(-c3ccn[nH]3)cc2C(CNC(=O)c2ccc(F)cc2)(C(F)(F)F)N1 (single isomer, unassigned) [Example 182, 4-fluoro-N-{[(4S*)-2-oxo-6-(1H-pyrazol-5-yl)-4-(trifluoromethyl)-1,2,3,4-tetrahydroquinazolin-4-yl]methyl}benzamide]
22	O=C1Nc2ccc(Cl)cc2C(CCNC(=O)c2ccc(F)cc2)(C(F)(F)F)O1 (single isomer, unassigned) [Example 32, N-{2-[(4R*)-6-chloro-2-oxo-4-(trifluoromethyl)-1,4-dihydro-2H-3,1-benzoxazin-4-yl]ethyl}-4-fluorobenzamide]
5.4	O=C1Nc2ccc(Cl)cc2C(CCNS(=O)(=O)c2ccccn2)(C(F)(F)F)O1 (single isomer, unassigned) [Example 120, N-{2-[(4R*)-6-chloro-2-oxo-4-(trifluoromethyl)-1,4-dihydro-2H-3,1-benzoxazin-4-yl]ethyl}pyridine-2-sulfonamide]
128	O=C1Nc2ccc(Cl)cc2C(CCCNS(=O)(=O)c2ccccn2)(C(F)(F)F)O1 (single isomer, unassigned) [Example 119, N-{3-[(4R*)-6-chloro-2-oxo-4-(trifluoromethyl)-1,4-dihydro-2H-3,1-benzoxazin-4-yl]propyl}pyridine-2-sulfonamide]
45	O=C1Nc2ccc(Cl)cc2C(CNC(=O)c2ccc(F)cc2)(C(F)(F)F)N1 (single isomer, unassigned) [Example 187, N-{[(4S*)-6-chloro-2-oxo-4-(trifluoromethyl)-1,2,3,4-tetrahydroquinazolin-4-yl]methyl}4-fluorobenzamide]
16	O=C1Nc2ccc(-c3cc[nH]n3)cc2C(CNS(=O)(=O)c2ccccn2)(C(F)(F)F)O1 (single isomer, unassigned) [Example 151, N-{[(4S*)-2-oxo-6-(1H-pyrazol-3-yl)-4-(trifluoromethyl)-1,4-dihydro-2H-3,1-benzoxazin-4-yl]methyl}pyridine-2-sulfonamide]
13	O=C1Nc2ccc(-c3cccs3)cc2C(CNC(=O)c2ccc(F)cc2)(C(F)(F)F)O1 (stereo not shown) [Example 147, 4-fluoro-N-{[2-oxo-6-(2-thienyl)-4-(trifluoromethyl)-1,4-dihydro-2H-3,1-benzoxazin-4-yl]methyl}benzamide]
17	O=C1Nc2ccc(-c3cc[nH]n3)cc2C(CNS(=O)(=O)c2ccc(F)cc2)(C(F)(F)F)O1 (single isomer, unassigned) [Example 150, 4-fluoro-N-{[(4S*)-2-oxo-6-(1H-pyrazol-3-yl)-4-(trifluoromethyl)-1,4-dihydro-2H-3,1-benzoxazin-4-yl]methyl}benzenesulfonamide]
